Measurements as given in patent publication US20160207930A1 (LEO PHARMA A/S, priority 2013, published 2016).

Columns and labels:
[1] = Hepatic intrinsic clearance following incubation in human liver microsomes; format: in vitro ADME; conditions: 0.5 μM test compound, NADPH, 0-30 min, scaled to g liver
Description: Hepatic Extraction Ratio from Hepatic Intrinsic Clearance Following Incubation in Human Liver Microsomes
The general procedure consists of an automated incubation system and LC-MS/MS analysis with human liver microsomes. Human liver microsomes are thawed rapidly in a waterbath at 37° C. and kept on ice until use. The human liver microsomes are diluted with 50 mM potassium phosphate buffer pH 7.4 to a protein concentration of 0.55 mg/mL. Test compounds and positive controls (Verapamil and Dextromethorphan, positive controls for CYP3A4 for CYP2D6 isoforms, respectively) are dissolved in methanol (or other appropriate solvent, if necessary) in order to obtain a 5 mM solution which is further diluted to the concentration of 50 μM. The stock solutions are prepared immediately before the test.
5 μL of 50 μM test compounds and controls are added to 445 μL-of the 0.55 mg/mL microsomes solution and the incubation mixture are pre-warmed at 37° C. for 5 minutes. The incubation reactions are initiated by adding 50 μL of pre-warmed NADPH regenerating system to the incubation mixtures. 50 μL-aliquots will be taken from the incubation mixtures at: 0, 3, 6, 9, 15 and 30 minutes and the reactions are stopped by adding 100 μL of ACN containing Rolipram, used as generic Internal Standard (IS). Samples are then diluted with 120 μL of Milli-Q water and centrifuged at 3000 rpm for 10 minutes, prior the LC-MS/MS analysis.
The integrated peak areas for test compounds at the selected time points are divided by the respective peak areas of the IS and the percent of parent remaining is calculated by normalizing the peak area ratio of parent to IS at 0 min. Observed rate constant (kobs) for parent degradation is calculated by determining the slope of the line of the graph of the natural log of percentage parent remaining versus time of incubation. From the rate of depletion (min−1) and volume of the incubation (mL), clearance is estimated. This is scaled for the protein in the incubation relative to that in the intact liver, for all species (mL/min/g liver).
Values for the Human in vitro Clint are expressed as mL/min/g liver.
Assuming a liver weight of 25.7 g/kg and a liver blood flow of 20.7 mL/min/kg, the hepatic extraction ratio, Eh, can be derived from the Human in vitro Clint:
E.g. a Human in vitro Clint of 2.4 mL/min/g liver corresponds to a hepatic extraction ratio of 75%.
Some compounds of the present invention were tested according to example 101.

NK1 Receptor = biological target: T1, NK1 Receptor (Homo sapiens, UniProt P25103); assay: NK1 receptor mediated intracellular [Ca2+] mobilization in U251 MG cells using FLIPR; format: cell-based; conditions: antagonism of Substance P (EC80), Fluo-4, read-out: NK1R mediated intracellular [Ca^2+] mobilization IC 50
T1 construct: Measurement of NK1 Receptor Mediated Intracellular [Ca^2+]; Mobilization in U251 MG Cells Using FLIPR; endogenous in cells; host or cells: U251 MG cells
Description: Measurement of NK1 Receptor Mediated Intracellular [Ca^2+] Mobilization in U251 MG Cells Using FLIPR
U251 MG cells were seeded into black walled clear-bottom 384-well plates (Greiner Bio-One GmbH, Frickenhausen, Germany) at a density of 15,000 cells/well in 50 μl culture medium and cultured overnight in a 37° C. 5% CO2 incubator. The cells were then loaded with the calcium sensitive dye Fluo-4 (Invitrogen) at 1 μM in buffer, containing 0.04% Pluronic F-127 (Sigma-Aldrich), and 2.5 mM probenecid (Sigma-Aldrich) for 60 min in a humidified atmosphere of 5% CO2. Thereafter, cells were washed three times in washing buffer containing 20 mM HEPES and 2.5 mM probenecid pH 7.3. Serial dilutions of test compounds in assay buffer containing 2% dimethyl sulfoxide (final concentration in the cell plate is 0.5% DMSO) and/or agonist were then automatically pipetted into each test well, and the peak fluorescence intensity was recorded (lex, 488 nm; lem, 540 nm) by the FLIPR instrument (Molecular Devices) for approximately 5 min. To measure antagonist potency, cell plates were first incubated with the test compound and intracellular fluorescence recorded for 5 minutes to check a potential agonist effect of the test compound. Cell plates were quickly removed from the FLIPR instrument and incubated for additional 10 minutes at 37° C. before being moved back to the FLIPR instrument for Substance P (EC80) addition. The response was measured as the peak relative fluorescence change after agonist addition.
Compound relative %-effect was normalized to the maximal response evoked by 100 nM Aprepitant in presence of the EC80 of Substance P and the antagonist potency determined by non-linear regression using GraphPad Prism (version 5) or the four-parameter logistic model in XLfit (IDBS, Guilford, UK) for Microsoft Excel (Microsoft, Redmond, Wash.). The IC50 value is defined as the molar concentration of a test compound that produces a response midway between the fitted top and the fitted bottom. pIC50=−log IC50
Formula is listed as follows:
Fit (% Effect calculated)=(A+((B−A)/(1+((C/X)̂D)))) • A: bottom value • B: top value • C: test compound concentration • X: Relative IC50 • D: Hill slope coefficient
Ref: Sullivan E, Tucker E M, and Dale I L. Measurement of [Ca^2+] using the Fluorometric Imaging Plate Reader (FLIPR). Methods Mol Biol 114:125-133, 1999.
Compounds of the present invention were tested according to example 100.

T1 sequence (P25103 whole entry): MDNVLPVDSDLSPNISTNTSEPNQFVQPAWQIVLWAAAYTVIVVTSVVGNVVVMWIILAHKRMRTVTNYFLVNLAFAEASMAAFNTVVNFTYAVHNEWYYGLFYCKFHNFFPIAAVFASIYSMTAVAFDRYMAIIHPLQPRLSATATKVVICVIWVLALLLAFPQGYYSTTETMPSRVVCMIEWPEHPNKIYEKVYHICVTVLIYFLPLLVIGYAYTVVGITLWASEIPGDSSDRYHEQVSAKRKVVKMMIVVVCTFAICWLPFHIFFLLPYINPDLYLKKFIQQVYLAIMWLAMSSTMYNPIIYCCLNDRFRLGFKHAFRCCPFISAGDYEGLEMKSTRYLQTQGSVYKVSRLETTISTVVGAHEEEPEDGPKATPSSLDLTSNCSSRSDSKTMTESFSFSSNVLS

SMILES | Human in vitro Clint [1] | IC50 (NK1 Receptor)
Cc1ccc([C@@H]2[C@H]3CCC(=O)N3CCN2C(=O)N(C)Cc2cc(C(F)(F)F)cc(C(F)(F)F)c2)c(C)c1 (racemic) [Compound 3, N-(3,5-bis(trifluoromethyl)benzyl)-1-(2,4-dimethylphenyl)-N-methyl-6-oxohexahydropyrrolo[1,2-a]pyrazine-2(1H)-carboxamide] | >200 mL/min/g | 0.297 nM
Cc1cc([C@@H](C)N(C)C(=O)N2CCN3C(=O)C(CCO)(CCO)CC3C2c2ccc(C)cc2C)cc(C(F)(F)F)c1 (mixture of isomers) [Compound 8, 1-(2,4-dimethylphenyl)-7,7-bis(2-hydroxyethyl)-N-methyl-N—((R)-1-(3-methyl-5-(trifluoromethyl)phenyl)ethyl)-6-oxo-hexahydropyrrolo[1,2-a]pyrazine-2(1H)-carboxamide] | >200 mL/min/g | 0.096 nM
Cc1ccc([C@@H]2[C@H]3CC(CCO)(CCO)C(=O)N3CCN2C(=O)N(C)Cc2cc(C(F)(F)F)cc(C(F)(F)F)c2)c(C)c1 (racemic) [Compound 9, N-(3,5-bis(trifluoromethyl)benzyl)-1-(2,4-dimethylphenyl)-7,7-bis(2-hydroxyethyl)-N-methyl-6-oxohexahydropyrrolo[1,2-a]pyrazine-2(1H)-carboxamide] | >200 mL/min/g | 0.18 nM
Cc1ccc(C2C3CCC(=O)N3CCN2C(=O)N(C)[C@H](C)c2cc(C(F)(F)F)cc(C(F)(F)F)c2)c(C)c1 (single isomer, unassigned) [Compound 1] | >200 mL/min/g | 0.154 nM
Cc1ccc(C2C3CCC(=O)N3CCN2C(=O)N(C)[C@H](C)c2cc(C(F)(F)F)cc(C(F)(F)F)c2)c(C)c1 (single isomer, unassigned) [Compound 2] | >200 mL/min/g | 7.79 nM
Cc1cc([C@@H](C)N(C)C(=O)N2CCN3C(=O)CCC3C2c2ccc(C)cc2C)cc(C(F)(F)F)c1 (single isomer, unassigned) [Compound 4] | >200 mL/min/g | 9.26 nM
C[C@H](c1cc(C(F)(F)F)cc(C(F)(F)F)c1)N(C)C(=O)N1CCN2C(=O)CC[C@H]2[C@@H]1c1ccccc1Cl (single isomer, unassigned) [Compound 72] |  | 0.02 nM
C[C@H](c1cc(C(F)(F)F)cc(C(F)(F)F)c1)N(C)C(=O)N1CCN2C(=O)CC[C@H]2[C@@H]1c1ccccc1Cl (single isomer, unassigned) [Compound 73] |  | 1.38 nM
C[C@H](c1cc(C(F)(F)F)cc(C(F)(F)F)c1)N(C)C(=O)N1CCN2C(=O)CC[C@H]2[C@@H]1c1ccc(F)cc1Cl (single isomer, unassigned) [Compound 83] |  | 0.06 nM
C[C@H](c1cc(C(F)(F)F)cc(C(F)(F)F)c1)N(C)C(=O)N1CCN2C(=O)CC[C@H]2[C@@H]1c1ccc(F)cc1Cl (single isomer, unassigned) [Compound 84] |  | 1.15 nM
Cc1cccnc1[C@H]1[C@@H]2CCC(=O)N2CCN1C(=O)N(C)[C@H](C)c1cc(C(F)(F)F)cc(C(F)(F)F)c1 [Compound 43, (1R,8aS)—N—((R)-1-(3,5-bis(trifluoromethyl)phenyl)ethyl)-N-methyl-1-(3-methylpyridin-2-yl)-6-oxo-hexahydropyrrolo[1,2-a]pyrazine-2(1H)-carboxamide] |  | 2.97 nM
Cc1ncccc1[C@H]1[C@@H]2CCC(=O)N2CCN1C(=O)N(C)[C@H](C)c1cc(C(F)(F)F)cc(C(F)(F)F)c1 [Compound 47, (1S,8aS)—N—((R)-1-(3,5-bis(trifluoromethyl)phenyl)ethyl)-N-methyl-1-(2-methylpyridin-3-yl)-6-oxo-hexahydropyrrolo[1,2-a]pyrazine-2(1H)-carboxamide] |  | 0.893 nM
Cc1n[nH]cc1[C@H]1[C@@H]2CCC(=O)N2CCN1C(=O)N(C)[C@H](C)c1cc(C(F)(F)F)cc(C(F)(F)F)c1 [Compound 60, (1S,8aS)—N—((R)-1-(3,5-bis(trifluoromethyl)phenyl)ethyl)-N-methyl-1-(3-methyl-1H-pyrazol-4-yl)-6-oxohexahydropyrrolo[1,2-a]pyrazine-2(1H)-carboxamide] |  | 31.8 nM
